Reference: US9827222B2, “Treating or preventing nephrogenic diabetes insipidus” (Emory University, priority 2013, dated 2017)

Legend:
UT-A1-mIMCD3 cells = experiment: cAMP in UT-A1-mIMCD3 cells; assay type: cell-based; details: 1 μM vasopressin (AVP) for 10 min; p<0.05
Description: FIG. 5 illustrates cAMP in UT-A1-mIMCD3 cells after treatment with 1 μM vasopressin (AVP) for 10 min, *=p<0.05.

AQP2 [1] = experiment: AQP2 phosphorylation in rat inner medulla
Description: Left: immune-precipitated 32P-AQP2; Right: phospho S256-AQP2.

[2] = Urine osmolality in rats after IP metformin; assay type: in vivo, rat; details: rats with normal water or water loaded for 1 week; 4 h after IP injection of metformin
Description: (§1) Rats with normal water (blue); water loaded for 1 week (red). Mice fed lithium for 14 days (green); V2R−/− mice (brown).

AQP2 [3] = experiment: Apical plasma membrane AQP2 in IMCDs of treated rats; assay type: in vivo, rat; details: 4 h, 100 mg/kg IP
Description: 400×, HRP/Dab with hematoxylin stained nuclei.

[4] = Urine osmolality in V2R knock-out mice (model of congenital NDI); assay type: in vivo; details: 4 h after IP injection of metformin
Description: as §1
(§2) Preliminary data indicates AMPK phosphorylates both the UT-A1 and AQP2 proteins, both in vitro (FIG. 3) and in native rat IMCD suspensions (FIG. 4). […]. Thus, AMPK may mimic by which vasopressin increases urine concentrating ability.

[5] = Urine osmolality in lithium-treated mice; assay type: in vivo; details: mice fed lithium for 14 days; 4 h after IP injection of metformin
Description: as §1

UT-A1 = UT-A1 phosphorylation in rat inner medullary tissue; details: AMPK stimulation with metformin, p<0.05
Description: as §2

## NC(=O)CC[C@@H]1NC(=O)[C@H](Cc2ccccc2)NC(=O)[C@H](Cc2ccc(O)cc2)NC(=O)[C@@H](N)CSSC[C@@H](C(=O)N2CCC[C@H]2C(=O)N[C@@H](CCCN=C(N)N)C(=O)NCC(N)=O)NC(=O)[C@H](CC(N)=O)NC1=O [Vasopressin, vasopressin]
UT-A1-mIMCD3 cells
  cAMP: increases

## CN(C)C(=N)N=C(N)N [metformin]
AQP2 [1]; rat inner medulla, 10^-4 M metformin with V2R inhibited using 10^-7 M tolvaptan
  pS256-AQP2: increases
AQP2 [1]; rat inner medullary tissue, AMPK stimulation with metformin, p<0.05
  AQP2 phosphorylation: undergo phosphorylation
[2]
  urine osmolality: increases
AQP2 [3]
  apical plasma membrane AQP2: increases
[4]
  urine osmolality: increases
[5]
  urine osmolality: increases
UT-A1
  UT-A1 phosphorylation: undergo phosphorylation

## Cc1ccccc1C(=O)Nc1ccc(C(=O)N2CCCC(O)c3cc(Cl)ccc32)c(C)c1 (stereo not drawn) [tolvaptan]
AQP2 [1]; native rat IMCDs, 10^-7 M tolvaptan & 10^-4 M metformin, compared to metformin alone
  AQP2 phosphorylation (immune-precipitated 32P-AQP2): increased
